We go through five compounds from patent US11479555B2, “Substituted 1,2-dihydro-3H-pyrazolo[3,4-D]pyrimidin-3-ones as inhibitors of WEE-1 kinase” (Newave Pharmaceutical Inc., priority 2018, dated 2022).

Each structure is given as a SMILES string.

One data set in a line: Mice CNS PK study. The format is in vivo. The settings on record: CD-1 mouse; for AUC(0-t): plasma, read-out: Plasma AUClast; for Kp: brain/plasma (printed as Brain/Blood), read-out: Brain/Blood Ratio. The method, then: The pharmacokinetics of compounds were evaluated in CD-1 mouse via Intravenous and Oral Administration. The iv dose was administered as a slow bolus in the Jugular vein, and oral doses were administered by gavage. The formulation for IV dosing is 5% DMSO in “20% HPBCD in water, and the PO formulation is 2.5% DMSO, 10% EtOH, 20% Cremphor EL, 67.5% D5W. The PK time point for the IV arm is 5, 15, 30 min, 1, 2, 4, 6, 8, 12, 24 hours post dose, and for PO arm is 15, 30 min, 1, 2, 4, 6, 8, 12, 24 hours post dose.
Plasma Samples Processing and Storage: Approximately 0.2 mL blood will be collected at each time point. Keep blood at room temperature and collect plasma within 15 min by centrifugation at 4000 g for 5 minutes in a 4° C. centrifuge. Plasma samples will be stored in polypropylene tubes. The plasma samples will be stored in a freezer at −75±15° C. prior to analysis.
Brain Samples Processing and Storage: The mice will be fully exsanguinated prior to tissue collection. Procedure: open chest cavity, cut ventricle and perform a gentle iv saline flush (saline flush volume ˜10 ml) with the animal placed head down at a 45 degree angle to facilitate blood removal. Tissue samples will be collected at adopted time point, quick frozen in ice box and kept at −75±15° C. All tissue samples will be weighted and homogenized with water by tissue weight (g) to water volume (mL) at ratio 1:3 before analysis. The actual concentration is the detected value multiplied by the dilution factor.
Concentrations of compounds in the plasma samples will be analyzed using a LC-MS/MS method. WinNonlin (Phoenix™, version 6.1) or other similar software will be used for pharmacokinetic calculations. The following pharmacokinetic parameters will be calculated, whenever possible from the plasma concentration versus time data: IV administration: C0, CL, Vd, T1/2, AUCinf, AUClast, MRT, Number of Points for Regression; PO administration: Cmax, Tmax, T1/2, AUCinf, AUClast, F %, Number of Points for Regression. The pharmacokinetic data will be described using descriptive statistics such as mean, standard deviation. Additional pharmacokinetic or statistical analysis may be performed at the discretion of the contributing scientist, and will be documented in the data summary.

In a further data set the test system is A498. Put plainly: In vitro cellular anti-proliferation assay (ATPlite), A498. The format is cell-based. As to conditions: Homo sapiens, about 72 hours, 5% FBS. The method, then: (§1) Cell antiproliferation was assayed by PerkinElmer ATPlite™ Luminescence Assay System. Briefly, the various test cancer cell lines were plated at a density of about 1×10^4 cells per well in Costar 96-well plates, and were incubated with different concentrations of compounds for about 72 hours in medium supplemented with 5% FBS. One lyophilized substrate solution vial was then reconstituted by adding 5 mL of substrate buffer solution, and was agitated gently until the solution was homogeneous. About 50 μL of mammalian cell lysis solution was added to 100 μL of cell suspension per well of a microplate, and the plate was shaken for about five minutes in an orbital shaker at ˜700 rpm. This procedure was used to lyse the cells and to stabilize the ATP. Next, 50 μL substrate solution was added to the wells and microplate was shaken for five minutes in an orbital shaker at ˜700 rpm. Finally, the luminescence was measured by a PerkinElmer TopCount® Microplate Scintillation Counter. Such assays, carried out with a range of doses of test compounds, allowed the determination of the cellular anti-antiproliferative IC50 of the compounds of the present invention.
(§2) The following table lists the LoVo IC50 values of another study for certain compounds of the invention.
(In general: ATP-based viability assays read luminescence as a measure of living cells.)

A further data set has as its system WEE1. As to conditions: inhibits WEE1 activity, induces DNA damage and G2 checkpoint escape; read-out: EC50 in cell based assays; cited from earlier work.
The next data set concerns LoVo. Put plainly: In vitro cellular anti-proliferation assay (ATPlite), LoVo. The format is cell-based. The settings on record: Homo sapiens, about 72 hours, 5% FBS. The procedure: as §1, §2
In the next data set the test system is SK-MES-1. Put plainly: In vitro cellular anti-proliferation assay (ATPlite), SK-MES-1. Format: cell-based. The settings on record: Homo sapiens, about 72 hours, 5% FBS. The method, then: as §1, §2
The next data set has as its system tumor. As to the kind of experiment: In vivo xenograft study. Set-up: species or system CB.17 SCID mice. As to conditions: 7 dose at 100 mg/kg, day 18. The source says:
The CB.17 SCID mice are obtained at age 6-8 weeks from vendors and acclimated for a minimum 7-day period. The cancer cells are then implanted into the […] mice. Depending on the specific tumor type, tumors are typically detectable about two weeks following implantation. When tumor sizes reach ˜100-200 mm^3, the animals with appreciable tumor size and shape are randomly assigned into groups of 8 mice each, including one vehicle control group and treatment groups. Dosing varies depending on the purpose and length of each study, which typically proceeds for about 3-4 weeks. Tumor sizes and body weight are typically measured three times per week. In addition to the determination of tumor size changes, the last tumor measurement is used to generate the tumor size change ratio (T/C value), a standard metric developed by the National Cancer Institute for xenograft tumor evaluation. […] When tumor regression occurred (ΔT<0), however, the following formula is used: % T/T0=100×ΔT/T0.

For a further data set, the target named is Wee1 kinase (Homo sapiens (Human), UniProt P30291). Put plainly: Wee-1 biochemical assay. As to conditions: another study. The procedure: In determination of the Weel kinase activity, a synthetic peptide, Poly(Lys,Tyr) Hydrobromide (Lys:Tyr (4:1)) bought from Sigma was used as the substrate. The amount of the reaction mixture was 21.1 μL; and the composition of the reaction buffer was 50 mM Tris-HCl buffer (pH 7.4)/10 mM magnesium chloride/1 mM dithiothreitol. The purified Weel kinase, 2.5 μg of the substrate peptide, 10 μM of non-labeled adenosine triphosphate (ATP) and 1 μCi of [γ-^33P]-labeled ATP (2500 Ci/mmol or more) were added to it, and incubated at 30° C. for 30 minutes. Next, 10 μL of 350 mM phosphate buffer was added to the reaction mixture to stop the reaction. The substrate peptide was adsorbed by a P81 paper filter 96-well plate, then washed a few times with 130 mM phosphate buffer, and its radioactivity was counted with a liquid scintillation counter. The [γ-^33P]-labeled ATP was bought from Amersham Bioscience. To add the test compound to the reaction system, the compound was diluted with dimethylsulfoxide (DMSO) to prepare a series of dilutions. 1.1 μL of each dilution was added to the reaction system. As a control, 1.1 μL of DMSO was added to the reaction system. Such assays, carried out with a range of doses of test compounds, allow the determination of the Wee1 IC50 of the compounds of the present invention
Sequence of Wee1 kinase (P30291 whole entry): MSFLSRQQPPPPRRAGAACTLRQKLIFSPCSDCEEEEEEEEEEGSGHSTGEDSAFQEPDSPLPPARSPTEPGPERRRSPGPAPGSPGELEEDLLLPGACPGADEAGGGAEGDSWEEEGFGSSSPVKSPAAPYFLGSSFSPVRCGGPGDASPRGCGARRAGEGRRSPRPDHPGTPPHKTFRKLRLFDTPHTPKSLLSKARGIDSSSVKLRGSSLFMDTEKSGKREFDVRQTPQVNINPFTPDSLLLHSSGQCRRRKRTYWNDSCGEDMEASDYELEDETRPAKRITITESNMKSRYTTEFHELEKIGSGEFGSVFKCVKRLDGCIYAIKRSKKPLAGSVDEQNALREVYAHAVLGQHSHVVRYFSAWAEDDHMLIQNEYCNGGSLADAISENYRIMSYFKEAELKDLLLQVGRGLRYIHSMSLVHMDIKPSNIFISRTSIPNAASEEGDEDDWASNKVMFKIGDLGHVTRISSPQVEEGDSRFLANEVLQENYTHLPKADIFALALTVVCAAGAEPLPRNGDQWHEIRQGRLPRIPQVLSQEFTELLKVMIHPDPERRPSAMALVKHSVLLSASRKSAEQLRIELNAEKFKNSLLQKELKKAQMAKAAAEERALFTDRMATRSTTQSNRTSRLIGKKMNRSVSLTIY

Consider `C=CCn1c(=O)c2cnc(Nc3ccc(N4CCN(C)CC4)cc3)nc2n1-c1cccc(C(C)(C)O)n1` [AZD1775, reference compound], for which the “Brain AUClast” value in the data set “Mice CNS PK study” turned out to be 524 ng·h/mL. The AUC(0-t) in the data set “Mice CNS PK study” came out at 9000 ng·h/mL. The Kp in the data set “Mice CNS PK study” was found to be 0.058. The figures for the IC50 with A498, in the data set with LoVo and in the data set on SK-MES-1 were less than 500 nM, less than 300 nM and less than 250 nM, respectively. Moreover, the EC50 in the data set on WEE1 was […].
For `C=CCn1c(=O)c2cnc(Nc3cnn(C4CCN(C5CCC(F)(F)CC5)CC4)c3)nc2n1-c1cccc(C(C)(C)O)n1.Cl` [Example 3, 6-([1-[1-(4,4-difluorocyclohexyl)piperidin-4-yl]-1H-pyrazol-4-yl]amino)-1-[6-(2-hydroxypropan-2-yl)pyridin-2-yl]-2-(prop-2-en-1-yl)-1H,2H,3H-pyrazolo[3,4-d]pyrimidin-3-one Hydrochloride], the tumor regression entry with tumor was “complete regression of the tumor”.
For the compound `CC(C)n1c(=O)c2cnc(Nc3ccc(N4CCN(C)CC4)cc3)nc2n1-c1cccc(C(C)(C)C(F)(F)F)n1` [Example 11, 2-isopropyl-6-((4-(4-methylpiperazin-1-yl)phenyl)amino)-1-(6-(1,1,1-trifluoro-2-methylpropan-2-yl)pyridin-2-yl)-1,2-dihydro-3H-pyrazolo[3,4-d]pyrimidin-3-one], in the data set “Mice CNS PK study”, the “Brain AUClast” value is listed as 12,002 h*ng/mL. Further, the AUC(0-t) in the data set “Mice CNS PK study” was determined as 7510 ng·h/mL. For the same compound, in the data set “Mice CNS PK study”, the Kp worked out at 1.6. Besides, the IC50 on Wee1 kinase is less than 1.5 nM; in the data set with A498, less than 500 nM; in the data set on LoVo it was less than 300 nM; in the data set with SK-MES-1 it was less than 250 nM.
`CC(C)n1c(=O)c2cnc(Nc3ccc(N4CCN(C)CC4)cc3)nc2n1-c1cccc(C(C)(C)F)n1` [Example 13, 1-(6-(2-fluoropropan-2-yl)pyridin-2-yl)-2-isopropyl-6-((4-(4-methylpiperazin-1-yl)phenyl)amino)-1,2-dihydro-3H-pyrazolo[3,4-d]pyrimidin-3-one]: in “Mice CNS PK study”, the “Brain AUClast” value is on record as 11,907 h*ng/mL. In addition, in “Mice CNS PK study”, the AUC(0-t) worked out at 8660 ng·h/mL. In “Mice CNS PK study”, the Kp is 1.38. For the same compound, the IC50 against Wee1 kinase was less than 1.5 nM; in the data set with A498, less than 500 nM; in the data set with LoVo it was less than 300 nM; with SK-MES-1, less than 250 nM.
Consider `CC(C)n1c(=O)c2cnc(Nc3ccc(N4CCN(C)CC4)cc3)nc2n1-c1cccc(C2CC2)n1` [Example 15, 1-(6-cyclopropylpyridin-2-yl)-2-isopropyl-6-((4-(4-methylpiperazin-1-yl)phenyl)amino)-1,2-dihydro-3H-pyrazolo[3,4-d]pyrimidin-3-one], for which the “Brain AUClast” value in “Mice CNS PK study” is 4,910 h*ng/mL. For the same compound, the AUC(0-t) in the data set “Mice CNS PK study” is 4710 ng·h/mL. Also, the Kp in “Mice CNS PK study” is 1. The IC50 on Wee1 kinase is less than 1.5 nM; with A498, less than 500 nM; with LoVo it was less than 300 nM; with SK-MES-1, less than 250 nM.

As usually defined, the IC50 is the concentration needed to halve the response being measured. By EC50 is commonly meant the concentration at which the effect is half-maximal.
